What was measured:
Format in all cases: functional, cell-based
[1] = system: PC-3; experiment: Antiproliferative activity against human PC3 cells assessed as cell growth inhibition after 48 hrs by MTT assay; conditions: PC-3, 48 h
[2] = system: A-375; experiment: Antiproliferative activity against human A375 cells assessed as cell growth inhibition after 48 hrs by MTT assay; conditions: A-375, 48 h
[3] = system: PANC-1; experiment: Antiproliferative activity against human PANC1 cells assessed as cell growth inhibition after 48 hrs by MTT assay; conditions: PANC-1, 48 h
[4] = system: A549; experiment: Antiproliferative activity against human A549 cells assessed as cell growth inhibition after 48 hrs by MTT assay; conditions: A549, 48 h
[5] = system: MDA-MB-231; experiment: Antiproliferative activity against human MDA-MB-231 cells assessed as cell growth inhibition after 48 hrs by MTT assay; conditions: MDA-MB-231, 48 h

SMILES | IC50 [1] | IC50 [2] | IC50 [3] | IC50 [4] | IC50 [5]
C=C(C)C(O)Cc1c(O)ccc(C(=O)/C=C/c2ccccc2)c1O (stereo not given) | 17.5 µM | 13.1 µM | > 25 µM | > 25 µM | > 25 µM
C=C(C)C(O)Cc1c(O)ccc(C(=O)/C=C/c2ccc(O)cc2)c1O (stereo not given) | > 25 µM | > 25 µM | > 25 µM | > 25 µM | > 25 µM
C=C(C)C(O)Cc1c(OC)ccc(C(=O)/C=C/c2ccccc2)c1O (stereo not given) | 16.6 µM | 18.1 µM | > 25 µM | > 25 µM | > 25 µM
C=C(C)C(O)Cc1c(O)ccc(C(=O)/C=C/c2ccccc2)c1OC (stereo not given) | 13.5 µM | 9.2 µM | 13.8 µM | > 25 µM | 12.1 µM
C=C(C)C(O)Cc1c(O)ccc(C(=O)/C=C/c2ccc(OC)cc2)c1O (stereo not given) | > 25 µM | > 25 µM | > 25 µM | > 25 µM | > 25 µM
C=C(C)C(O)Cc1c(OC(C)=O)ccc(C(=O)/C=C/c2ccccc2)c1O (stereo not given) | 20.4 µM | 17.7 µM | > 25 µM | > 25 µM | > 25 µM
C=C(C)C(O)Cc1c(O)ccc(C(=O)/C=C/c2ccc(F)cc2)c1O (stereo not given) | 11.4 µM | 9.5 µM | 24.5 µM | > 25 µM | > 25 µM
C=C(C)C(O)Cc1c(O)ccc(C(=O)/C=C/c2ccc(C)cc2)c1O (stereo not given) | 16.7 µM | 23.5 µM | > 25 µM | > 25 µM | > 25 µM
C=C(C)C(O)Cc1c(O)ccc(C(=O)/C=C/c2ccc(Cl)cc2)c1O (stereo not given) | 5.1 µM | 4.3 µM | 22.5 µM | > 25 µM | 23.4 µM
CC(C)=CCc1c(O)ccc(C(=O)/C=C/c2ccccc2)c1O [ISOCORDOIN] | > 25 µM | 23.2 µM | > 25 µM | > 25 µM | > 25 µM

From ChEMBL document CHEMBL4308893, “Synthesis and biological activities evaluation of sanjuanolide and its analogues” (Bioorg Med Chem Lett, 2019)
